Measured values as given in ChEMBL document CHEMBL4507291 (2021).

What was measured:
[1] = tested on: Leucine-rich repeat serine/threonine-protein kinase 2 (Homo sapiens), Q5S007 [G2019S]; settings: Compound concentration 1000.0 nM
[2] = biological target: 5-hydroxytryptamine receptor 7 (Homo sapiens) (UniProt P34969); settings: Compound concentration 10.0 uM
[3] = biological target: T1, Rhodopsin kinase GRK7 (Homo sapiens) (UniProt Q8WTQ7); experiment: GRK7 Kinase screen; settings: Compound concentration 1.0 uM
T1 sequence (whole entry): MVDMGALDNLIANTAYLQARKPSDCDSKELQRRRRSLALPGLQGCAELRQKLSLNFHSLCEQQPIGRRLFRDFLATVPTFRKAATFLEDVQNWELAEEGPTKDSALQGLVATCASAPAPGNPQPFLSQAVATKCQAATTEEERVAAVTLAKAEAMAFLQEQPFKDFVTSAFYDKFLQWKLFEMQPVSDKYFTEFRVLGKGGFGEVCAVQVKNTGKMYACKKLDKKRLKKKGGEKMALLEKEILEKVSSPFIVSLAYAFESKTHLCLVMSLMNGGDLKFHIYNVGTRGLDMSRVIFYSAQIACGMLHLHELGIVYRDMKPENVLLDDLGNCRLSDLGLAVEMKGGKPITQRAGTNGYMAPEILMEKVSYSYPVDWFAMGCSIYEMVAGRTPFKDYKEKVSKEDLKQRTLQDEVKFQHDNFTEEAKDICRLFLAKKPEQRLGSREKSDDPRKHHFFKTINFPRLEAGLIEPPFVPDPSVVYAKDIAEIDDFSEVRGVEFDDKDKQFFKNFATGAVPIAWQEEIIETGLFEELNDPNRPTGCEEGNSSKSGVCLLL

[4] = biological target: MAO-A (amine oxidase [flavin-containing] A) (Homo sapiens, UniProt P21397); experiment: Inhibition of Monoamine Oxidase MAO-A at compound concentration of 10.0 uM in the Eurofins-Panlabs enzyme assay (Eurofins_assay_140010); set-up: substrate with concentration 50 uM Kynuramine, incubation time 60 min, incubation temperature 37 C; settings: recombinant human MAO-A expressed in insect Hi5 cells, probe kynuramine (50 uM), compound concentration 10 uM
MAO-A (amine oxidase [flavin-containing] A), sequence (P21397 whole entry): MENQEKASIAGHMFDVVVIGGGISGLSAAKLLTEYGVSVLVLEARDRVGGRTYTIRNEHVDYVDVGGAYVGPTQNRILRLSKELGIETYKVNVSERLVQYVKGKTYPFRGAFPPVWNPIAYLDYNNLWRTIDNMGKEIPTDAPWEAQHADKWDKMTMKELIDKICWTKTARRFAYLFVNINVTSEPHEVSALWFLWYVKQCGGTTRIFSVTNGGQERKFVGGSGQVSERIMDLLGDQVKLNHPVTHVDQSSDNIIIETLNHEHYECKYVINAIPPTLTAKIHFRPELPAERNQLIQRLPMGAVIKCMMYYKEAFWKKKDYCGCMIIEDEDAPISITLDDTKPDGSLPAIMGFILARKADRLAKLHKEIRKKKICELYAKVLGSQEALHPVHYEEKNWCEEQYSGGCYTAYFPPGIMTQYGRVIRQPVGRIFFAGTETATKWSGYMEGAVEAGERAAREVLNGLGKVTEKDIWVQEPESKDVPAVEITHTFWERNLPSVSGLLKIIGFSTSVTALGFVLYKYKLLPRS

[5] = biological target: Calcium/calmodulin-dependent protein kinase type II subunit delta (Homo sapiens) (UniProt Q13557); experiment: CAMK2D (CaMKII delta) Kinase screen; settings: Compound concentration 1.0 uM
Calcium/calmodulin-dependent protein kinase type II subunit delta (Homo sapiens), sequence (Q13557 whole entry): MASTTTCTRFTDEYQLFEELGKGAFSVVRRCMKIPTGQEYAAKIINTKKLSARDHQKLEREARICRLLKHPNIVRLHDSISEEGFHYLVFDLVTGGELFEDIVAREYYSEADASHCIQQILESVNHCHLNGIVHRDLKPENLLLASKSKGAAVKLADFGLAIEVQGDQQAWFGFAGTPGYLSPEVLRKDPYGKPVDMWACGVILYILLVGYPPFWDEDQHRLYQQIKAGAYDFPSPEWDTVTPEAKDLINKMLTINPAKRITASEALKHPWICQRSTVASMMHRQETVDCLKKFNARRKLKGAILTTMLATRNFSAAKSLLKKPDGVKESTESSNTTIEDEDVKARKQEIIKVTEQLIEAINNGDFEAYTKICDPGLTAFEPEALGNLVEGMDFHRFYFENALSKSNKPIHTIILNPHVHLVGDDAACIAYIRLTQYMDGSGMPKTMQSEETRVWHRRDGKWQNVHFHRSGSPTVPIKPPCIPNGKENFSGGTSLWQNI

[6] = biological target: Vasoactive intestinal polypeptide receptor 1 (Homo sapiens) (UniProt P32241); experiment: Inhibition of Vasoactive Intestinal Peptide VIP1 at 10 µM in the Eurofins-Panlabs radioligand binding assay (Eurofins_assay_287010); settings: Compound concentration 10.0 uM
Vasoactive intestinal polypeptide receptor 1 (Homo sapiens), sequence (P32241 whole entry): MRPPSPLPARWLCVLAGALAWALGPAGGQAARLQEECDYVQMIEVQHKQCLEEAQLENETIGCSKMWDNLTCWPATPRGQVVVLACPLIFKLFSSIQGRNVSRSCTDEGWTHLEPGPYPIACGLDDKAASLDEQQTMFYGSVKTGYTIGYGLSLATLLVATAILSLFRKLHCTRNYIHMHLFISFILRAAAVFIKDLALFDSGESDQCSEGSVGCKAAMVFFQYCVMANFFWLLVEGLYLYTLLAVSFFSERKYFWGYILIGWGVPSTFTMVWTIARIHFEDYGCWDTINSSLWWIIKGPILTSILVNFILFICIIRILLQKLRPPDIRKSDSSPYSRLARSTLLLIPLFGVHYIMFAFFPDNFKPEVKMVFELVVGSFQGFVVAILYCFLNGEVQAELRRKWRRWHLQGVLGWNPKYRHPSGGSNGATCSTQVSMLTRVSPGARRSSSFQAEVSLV

[7] = biological target: Casein kinase II subunit alpha' (Homo sapiens) (UniProt P19784); experiment: CSNK2A2 (CK2 alpha 2) Kinase screen; settings: Compound concentration 1.0 uM
[8] = biological target: Calcium/calmodulin-dependent protein kinase kinase 2 (Homo sapiens) (UniProt Q96RR4); experiment: CAMKK2 (CaMKK beta) Kinase screen; settings: Compound concentration 1.0 uM
Calcium/calmodulin-dependent protein kinase kinase 2 (Homo sapiens), sequence (Q96RR4 2-588 limits assumed): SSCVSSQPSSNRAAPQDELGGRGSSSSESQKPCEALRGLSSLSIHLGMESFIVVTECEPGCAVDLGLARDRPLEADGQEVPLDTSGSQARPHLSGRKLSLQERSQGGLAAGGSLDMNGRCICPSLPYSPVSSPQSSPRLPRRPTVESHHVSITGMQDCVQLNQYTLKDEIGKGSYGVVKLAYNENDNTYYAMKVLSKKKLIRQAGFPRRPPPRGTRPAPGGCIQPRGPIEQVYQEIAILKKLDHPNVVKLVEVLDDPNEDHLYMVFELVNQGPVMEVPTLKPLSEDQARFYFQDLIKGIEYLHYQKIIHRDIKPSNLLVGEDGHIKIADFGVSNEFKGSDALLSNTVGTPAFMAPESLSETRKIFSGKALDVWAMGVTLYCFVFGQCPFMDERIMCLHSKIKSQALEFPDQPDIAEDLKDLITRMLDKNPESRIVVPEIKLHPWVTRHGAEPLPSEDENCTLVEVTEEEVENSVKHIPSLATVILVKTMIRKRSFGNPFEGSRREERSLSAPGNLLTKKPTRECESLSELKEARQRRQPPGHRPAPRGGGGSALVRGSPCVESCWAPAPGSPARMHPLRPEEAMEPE

[9] = biological target: Cyclin-dependent kinase 5/CDK5 activator 1 (Homo sapiens) (UniProt Q00535+Q15078); experiment: CDK5/p35 Kinase screen; type: protein-complex assay; settings: Compound concentration 1.0 uM
Cyclin-dependent kinase 5/CDK5 activator 1 (Homo sapiens), sequence (Q00535 whole entry): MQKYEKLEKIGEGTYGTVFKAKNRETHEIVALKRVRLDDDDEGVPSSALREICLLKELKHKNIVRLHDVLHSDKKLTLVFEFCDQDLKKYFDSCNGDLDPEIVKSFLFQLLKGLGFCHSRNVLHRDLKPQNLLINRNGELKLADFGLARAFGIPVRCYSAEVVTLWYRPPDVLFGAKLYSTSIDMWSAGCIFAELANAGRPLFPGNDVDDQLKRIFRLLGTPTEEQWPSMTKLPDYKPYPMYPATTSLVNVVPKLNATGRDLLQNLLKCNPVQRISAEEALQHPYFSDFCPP
Cyclin-dependent kinase 5/CDK5 activator 1 (Homo sapiens), sequence (Q15078 99-307 partner limits assumed): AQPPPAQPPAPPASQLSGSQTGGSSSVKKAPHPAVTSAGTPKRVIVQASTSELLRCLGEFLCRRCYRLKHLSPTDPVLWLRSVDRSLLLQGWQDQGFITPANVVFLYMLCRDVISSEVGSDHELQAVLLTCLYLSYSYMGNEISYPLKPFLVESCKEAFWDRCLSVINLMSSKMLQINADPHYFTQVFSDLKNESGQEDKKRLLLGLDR

[10] = biological target: Ribosomal protein S6 kinase alpha-5 (Homo sapiens) (UniProt O75582); experiment: RPS6KA5 (MSK1) Kinase screen; settings: Compound concentration 1.0 uM
[11] = biological target: Ribosomal protein S6 kinase beta-1 (Homo sapiens) (UniProt P23443); experiment: RPS6KB1 (p70S6K) Kinase screen; settings: Compound concentration 1.0 uM
Ribosomal protein S6 kinase beta-1 (Homo sapiens), sequence (P23443 whole entry, looked up): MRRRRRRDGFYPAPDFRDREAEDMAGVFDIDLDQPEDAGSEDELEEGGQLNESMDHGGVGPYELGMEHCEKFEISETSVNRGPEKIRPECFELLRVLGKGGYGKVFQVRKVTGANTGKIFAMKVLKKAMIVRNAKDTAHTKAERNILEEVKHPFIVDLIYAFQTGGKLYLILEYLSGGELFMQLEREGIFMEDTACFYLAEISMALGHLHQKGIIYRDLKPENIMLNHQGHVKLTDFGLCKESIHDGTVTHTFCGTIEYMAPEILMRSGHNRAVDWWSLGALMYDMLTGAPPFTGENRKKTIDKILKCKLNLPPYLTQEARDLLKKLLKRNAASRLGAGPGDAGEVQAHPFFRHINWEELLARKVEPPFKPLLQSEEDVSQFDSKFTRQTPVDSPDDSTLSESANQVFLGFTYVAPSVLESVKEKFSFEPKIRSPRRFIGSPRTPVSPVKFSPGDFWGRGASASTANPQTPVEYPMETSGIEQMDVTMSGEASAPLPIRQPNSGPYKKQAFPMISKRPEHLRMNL

[12] = biological target: T2, Serine/threonine-protein kinase D3 (Homo sapiens) (UniProt O94806); experiment: PRKCN (PKD3) Kinase screen; settings: Compound concentration 1.0 uM
T2 sequence (whole entry): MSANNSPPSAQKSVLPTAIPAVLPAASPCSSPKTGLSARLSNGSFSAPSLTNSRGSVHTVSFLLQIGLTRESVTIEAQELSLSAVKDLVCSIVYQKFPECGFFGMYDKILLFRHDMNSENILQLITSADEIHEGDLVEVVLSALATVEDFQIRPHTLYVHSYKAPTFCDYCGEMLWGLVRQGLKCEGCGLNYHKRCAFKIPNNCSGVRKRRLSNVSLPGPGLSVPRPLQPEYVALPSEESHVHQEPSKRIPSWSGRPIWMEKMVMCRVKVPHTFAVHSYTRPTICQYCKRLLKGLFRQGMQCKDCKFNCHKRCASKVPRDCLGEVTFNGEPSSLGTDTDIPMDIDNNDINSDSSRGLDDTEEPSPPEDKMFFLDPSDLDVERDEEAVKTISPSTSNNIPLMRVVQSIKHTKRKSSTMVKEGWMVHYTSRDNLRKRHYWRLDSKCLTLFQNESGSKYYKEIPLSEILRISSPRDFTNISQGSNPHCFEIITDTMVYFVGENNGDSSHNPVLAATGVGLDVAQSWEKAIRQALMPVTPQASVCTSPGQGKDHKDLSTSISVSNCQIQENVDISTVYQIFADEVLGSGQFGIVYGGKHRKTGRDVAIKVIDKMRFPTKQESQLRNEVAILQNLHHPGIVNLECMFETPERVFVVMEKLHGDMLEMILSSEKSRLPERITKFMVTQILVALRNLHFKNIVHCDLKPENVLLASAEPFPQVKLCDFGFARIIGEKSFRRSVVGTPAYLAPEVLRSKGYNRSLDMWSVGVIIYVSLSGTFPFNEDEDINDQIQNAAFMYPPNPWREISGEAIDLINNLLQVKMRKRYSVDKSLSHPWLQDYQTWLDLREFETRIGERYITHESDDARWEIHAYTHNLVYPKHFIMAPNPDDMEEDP

[13] = biological target: Angiopoietin-1 receptor (Homo sapiens) (UniProt Q02763); experiment: TEK (Tie2) Kinase screen; settings: Compound concentration 1.0 uM
Angiopoietin-1 receptor (Homo sapiens), sequence (Q02763 whole entry): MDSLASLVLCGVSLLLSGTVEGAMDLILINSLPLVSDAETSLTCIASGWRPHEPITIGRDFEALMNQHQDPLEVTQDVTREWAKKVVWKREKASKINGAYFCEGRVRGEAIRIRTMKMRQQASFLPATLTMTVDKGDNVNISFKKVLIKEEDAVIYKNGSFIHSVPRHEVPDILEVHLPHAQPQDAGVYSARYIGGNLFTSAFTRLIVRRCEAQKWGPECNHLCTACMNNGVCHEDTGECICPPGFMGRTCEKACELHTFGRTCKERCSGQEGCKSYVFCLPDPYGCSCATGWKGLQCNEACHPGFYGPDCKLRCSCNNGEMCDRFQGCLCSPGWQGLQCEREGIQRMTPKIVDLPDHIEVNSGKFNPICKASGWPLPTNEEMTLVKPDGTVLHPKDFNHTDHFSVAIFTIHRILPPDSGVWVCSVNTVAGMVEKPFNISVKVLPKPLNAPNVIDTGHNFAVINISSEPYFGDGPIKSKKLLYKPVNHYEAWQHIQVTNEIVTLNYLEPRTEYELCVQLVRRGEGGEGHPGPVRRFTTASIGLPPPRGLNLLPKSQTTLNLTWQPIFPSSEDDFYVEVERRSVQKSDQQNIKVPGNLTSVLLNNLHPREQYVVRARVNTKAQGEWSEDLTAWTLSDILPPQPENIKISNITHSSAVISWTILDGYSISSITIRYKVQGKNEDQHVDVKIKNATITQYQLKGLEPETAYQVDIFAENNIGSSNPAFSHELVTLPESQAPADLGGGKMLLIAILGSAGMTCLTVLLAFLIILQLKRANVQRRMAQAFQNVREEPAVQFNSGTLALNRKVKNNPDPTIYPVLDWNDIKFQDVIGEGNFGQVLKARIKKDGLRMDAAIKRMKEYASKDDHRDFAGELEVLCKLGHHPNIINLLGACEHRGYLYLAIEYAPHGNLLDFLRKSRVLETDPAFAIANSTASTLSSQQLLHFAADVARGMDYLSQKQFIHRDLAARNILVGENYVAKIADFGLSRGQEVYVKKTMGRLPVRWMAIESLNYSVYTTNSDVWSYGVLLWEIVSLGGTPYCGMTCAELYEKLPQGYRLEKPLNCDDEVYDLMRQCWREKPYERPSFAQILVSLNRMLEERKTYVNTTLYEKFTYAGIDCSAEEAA

[14] = biological target: T3, Mitogen-activated protein kinase kinase kinase 2 (Homo sapiens) (UniProt Q9Y2U5); experiment: MAP3K2 (MEKK2) Kinase screen; settings: Compound concentration 1.0 uM
T3 sequence (whole entry): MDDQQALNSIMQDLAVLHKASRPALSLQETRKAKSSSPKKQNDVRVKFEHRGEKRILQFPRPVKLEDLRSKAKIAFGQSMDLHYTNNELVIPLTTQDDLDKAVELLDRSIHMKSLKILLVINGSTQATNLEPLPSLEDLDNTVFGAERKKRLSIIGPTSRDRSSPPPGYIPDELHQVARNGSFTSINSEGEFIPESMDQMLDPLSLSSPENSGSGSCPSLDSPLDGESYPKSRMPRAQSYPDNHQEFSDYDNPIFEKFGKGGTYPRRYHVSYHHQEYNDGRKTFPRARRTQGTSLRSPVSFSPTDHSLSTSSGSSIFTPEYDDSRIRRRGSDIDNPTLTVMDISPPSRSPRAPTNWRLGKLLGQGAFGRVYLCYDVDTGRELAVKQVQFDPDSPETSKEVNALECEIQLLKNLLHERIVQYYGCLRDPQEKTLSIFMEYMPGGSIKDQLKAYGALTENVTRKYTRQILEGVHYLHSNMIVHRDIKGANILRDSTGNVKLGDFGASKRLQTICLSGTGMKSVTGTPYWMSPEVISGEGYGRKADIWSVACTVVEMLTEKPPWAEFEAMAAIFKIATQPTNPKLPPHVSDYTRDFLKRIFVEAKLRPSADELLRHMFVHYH

[15] = biological target: Sodium-dependent dopamine transporter (Homo sapiens) (UniProt Q01959); settings: Compound concentration 10.0 uM
[16] = biological target: LIM domain kinase 1 (Homo sapiens) (UniProt P53667); experiment: LIMK1 Kinase screen; settings: Compound concentration 1.0 uM
LIM domain kinase 1 (Homo sapiens), sequence (P53667 whole entry, looked up, the tested form may be a part): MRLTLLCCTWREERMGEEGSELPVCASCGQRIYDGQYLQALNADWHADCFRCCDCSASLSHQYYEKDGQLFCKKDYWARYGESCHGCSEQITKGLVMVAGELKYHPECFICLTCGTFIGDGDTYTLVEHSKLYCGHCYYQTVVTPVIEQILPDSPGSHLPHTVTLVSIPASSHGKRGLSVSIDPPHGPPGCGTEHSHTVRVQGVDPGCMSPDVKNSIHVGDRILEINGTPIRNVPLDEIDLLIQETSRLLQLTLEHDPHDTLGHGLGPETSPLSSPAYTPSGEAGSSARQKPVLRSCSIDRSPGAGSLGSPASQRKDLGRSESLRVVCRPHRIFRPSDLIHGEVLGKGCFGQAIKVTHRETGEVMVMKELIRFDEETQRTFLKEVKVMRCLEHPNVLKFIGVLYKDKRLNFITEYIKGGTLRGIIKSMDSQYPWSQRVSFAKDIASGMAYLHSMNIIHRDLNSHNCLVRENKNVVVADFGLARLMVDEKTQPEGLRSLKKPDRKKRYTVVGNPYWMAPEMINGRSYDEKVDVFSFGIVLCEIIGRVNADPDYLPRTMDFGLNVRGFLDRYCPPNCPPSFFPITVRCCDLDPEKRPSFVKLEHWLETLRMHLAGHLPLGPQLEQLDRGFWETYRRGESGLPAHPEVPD

| Compound | residual activity [1] [%] | inhibition [2] [%] | inhibition [3] [%] | inhibition at 60 min, 10 µM [4] | inhibition [5] [%] | inhibition [6] [%] | inhibition [7] [%] | inhibition [8] [%] | inhibition [9] [%] | inhibition [10] [%] | inhibition [11] [%] | inhibition [12] [%] | inhibition [13] [%] | inhibition [14] [%] | inhibition [15] [%] | inhibition [16] [%] |
| --- | --- | --- | --- | --- | --- | --- | --- | --- | --- | --- | --- | --- | --- | --- | --- | --- |
| C[C@@H]1CN(c2cc(-c3nn(C)c4ccc(OC5(C)CC5)cc34)ncn2)C[C@H](C)O1 [MLi-2-NC] | 36 | -0.4 |  |  |  |  |  |  |  |  |  |  |  |  |  |  |
| C[C@@H]1CN(c2cc(-c3n[nH]c4ccc(OC5(C)CC5)cc34)ncn2)C[C@H](C)O1 [MLi-2] |  |  | 4.4 | 2% (not active) | 23.9 | 3 | 10.4 | 19.8 | -0.531 | 0.435 | 5.26 | 21.1 | 2.36 | 7.58 | 16 | 11 |
